The record followed here is patent publication US11446287B2, “Compounds and methods for EP300 or CBP modulation and indications therefor” (Opna Immuno-Oncology SA, priority 2019, dated 2022).

What is called IC50 is the midpoint of a concentration-inhibition curve.

The assay has as its target T1, Recombinant human EP300 containing the bromodomain (EP300-BD (1040-1161)) (Homo sapiens, UniProt Q09472).
T1 construct: Recombinant human EP300 bromodomain (EP300-BD (1040-1161)); made in house; host or cells: E. coli BL21-CodonPlus (DE3), modified pET vector
T1 sequence (Q09472 1040-1161): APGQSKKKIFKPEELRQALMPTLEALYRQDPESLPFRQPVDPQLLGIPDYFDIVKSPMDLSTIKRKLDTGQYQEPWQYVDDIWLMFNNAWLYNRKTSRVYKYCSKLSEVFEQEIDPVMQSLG
The assay can be described thus: EP300 Alphascreen binding assay. The essentials:
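Displacement of a biotinylated acetyl-K56 histone H3 peptide from the N-His bromodomain construct (1040-1161) measured by AlphaScreen proximity, beads at 7.5 μg/ml final, read 60 min after addition. Protein, peptide and compound first incubated 1 h at room temperature, pH 7.5 HEPES buffer; IC50 by four-parameter logistic fit.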

`Cc1noc(C)c1-c1cnc2c(c1)c(-c1ccc(C(=O)O)cc1OCC(F)(F)F)cn2C(C1CC1)C1CC1` [P-0214, 4-(1-(dicyclopropylmethyl)-5-(3,5-dimethylisoxazol-4-yl)-1H-pyrrolo[2,3-b]pyridin-3-yl)-3-(2,2,2-trifluoroethoxy)benzoic acid]: the half-inhibitory concentration (IC50) fell in the range of 0.1 to 1000 nM.
As to `Cc1noc(C)c1-c1cnc2c(c1)c(-c1ccc(C(=O)O)cc1OC(F)(F)F)cn2-c1ncccc1C#N` [P-0215, 4-(1-(3-cyanopyridin-2-yl)-5-(3,5-dimethylisoxazol-4-yl)-1H-pyrrolo[2,3-b]pyridin-3-yl)-3-(trifluoromethoxy)benzoic acid], the IC50 was in the range of 0.1 to 1000 nM.
As to `Cc1noc(C)c1-c1cnc2c(c1)c(-c1ccc(C(=O)O)cc1OC(F)(F)F)cn2-c1ncccc1C#CC1CC1` [P-0216, 4-(1-(3-(cyclopropylethynyl)pyridin-2-yl)-5-(3,5-dimethylisoxazol-4-yl)-1H-pyrrolo[2,3-b]pyridin-3-yl)-3-(trifluoromethoxy)benzoic acid], the IC50 lay within 0.1 to 1000 nM.
In the case of `CCOc1cc(C(=O)O)cc(OCC)c1-n1cc(-c2ccc(C#N)cc2F)c2ncc(-c3c(C)noc3C)cc21` [P-0217, 4-(3-(4-cyano-2-fluorophenyl)-6-(3,5-dimethylisoxazol-4-yl)-1H-pyrrolo[3,2-b]pyridin-1-yl)-3,5-diethoxybenzoic acid], the IC50 lay within 0.1 to 1000 nM.
For the molecule `CCOc1cc(C(=O)O)cc(OCC)c1-n1cc(-c2ccc(C(=O)NC3CC3)cc2)c2ncc(-c3c(C)noc3C)cc21` [P-0218, 4-(3-(4-(cyclopropylcarbamoyl)phenyl)-6-(3,5-dimethylisoxazol-4-yl)-1H-pyrrolo[3,2-b]pyridin-1-yl)-3,5-diethoxybenzoic acid], the IC50 lay within 0.1 to 1000 nM.
To `COC(=O)c1cc(OC)c(-n2cc(-c3ccccc3)c3ncc(-c4c(C)noc4C)cc32)c(OC)c1` [P-0219, methyl 4-(6-(3,5-dimethylisoxazol-4-yl)-3-phenyl-1H-pyrrolo[3,2-b]pyridin-1-yl)-3,5-dimethoxybenzoate] belongs 0.1 to 1000 nM; to `COc1cc(C(=O)O)cc(OC)c1-n1cc(-c2ccccc2)c2ncc(-c3c(C)noc3C)cc21` [P-0220, 4-(6-(3,5-dimethylisoxazol-4-yl)-3-phenyl-1H-pyrrolo[3,2-b]pyridin-1-yl)-3,5-dimethoxybenzoic acid], 0.1 to 1000 nM.
To `COc1cccc(OC)c1-n1cc(-c2ccccc2)c2ncc(-c3c(C)noc3C)cc21` [P-0221, 4-(1-(2,6-dimethoxyphenyl)-3-phenyl-1H-pyrrolo[3,2-b]pyridin-6-yl)-3,5-dimethylisoxazole] belongs 0.1 to 1000 nM; to `CCOc1cc(C(=O)O)cc(OCC)c1-n1cc(-c2ccnc(F)c2)c2ncc(-c3c(C)noc3C)cc21` [P-0222, 4-(6-(3,5-dimethylisoxazol-4-yl)-3-(2-fluoropyridin-4-yl)-1H-pyrrolo[3,2-b]pyridin-1-yl)-3,5-diethoxybenzoic acid], 0.1 to 1000 nM; to `Cc1noc(C)c1-c1cnc2c(c1)c(-c1ccc(C(=O)O)cc1OC(F)(F)F)cn2-c1ccccc1F` [P-0223, 4-(5-(3,5-dimethylisoxazol-4-yl)-1-(2-fluorophenyl)-1H-pyrrolo[2,3-b]pyridin-3-yl)-3-(trifluoromethoxy)benzoic acid], 0.1 to 1000 nM.
To `CCOc1cccc(Cl)c1-n1cc(-c2ccccc2)c2ncc(-c3c(C)noc3C)cc21` [P-0224, 4-(1-(2-chloro-6-ethoxyphenyl)-3-phenyl-1H-pyrrolo[3,2-b]pyridin-6-yl)-3,5-dimethylisoxazole] belongs 1000 to 8000 nM; to `CCOc1ccc(C(=O)O)cc1-n1cc(-c2ccccc2)c2ncc(-c3c(C)noc3C)cc21` [P-0225, 3-(6-(3,5-dimethylisoxazol-4-yl)-3-phenyl-1H-pyrrolo[3,2-b]pyridin-1-yl)-4-ethoxybenzoic acid], 0.1 to 1000 nM; to `Cc1noc(C)c1-c1cnc2c(c1)c(-c1ccc(C(=O)O)cc1OC(F)(F)F)cn2C1CCOCC1` [P-0226, 4-(5-(3,5-dimethylisoxazol-4-yl)-1-(tetrahydro-2H-pyran-4-yl)-1H-pyrrolo[2,3-b]pyridin-3-yl)-3-(trifluoromethoxy)benzoic acid], 0.1 to 1000 nM.
Consider `Cc1noc(C)c1-c1cnc2c(c1)c(-c1ccc(C(=O)O)cc1OC(F)(F)F)cn2C1CCC(F)(F)CC1` [P-0227, 4-(1-(4,4-difluorocyclohexyl)-5-(3,5-dimethylisoxazol-4-yl)-1H-pyrrolo[2,3-b]pyridin-3-yl)-3-(trifluoromethoxy)benzoic acid], for which the IC50 was in the range of 0.1 to 1000 nM.
To `Cc1noc(C)c1-c1cnc2c(c1)c(-c1ccc(C(=O)O)cc1OC(F)(F)F)c(C)n2-c1ccccn1` [P-0228, 4-(5-(3,5-dimethylisoxazol-4-yl)-2-methyl-1-(pyridin-2-yl)-1H-pyrrolo[2,3-b]pyridin-3-yl)-3-(trifluoromethoxy)benzoic acid] belongs 0.1 to 1000 nM.
To `Cc1noc(C)c1-c1cnc2c(-c3ccc(F)cc3F)cn(-c3ccc(C(=O)O)cc3OC(F)(F)F)c2c1` [P-0229, 4-(3-(2,4-difluorophenyl)-6-(3,5-dimethylisoxazol-4-yl)-1H-pyrrolo[3,2-b]pyridin-1-yl)-3-(trifluoromethoxy)benzoic acid] belongs 0.1 to 1000 nM; to `Cc1noc(C)c1-c1cnc2c(c1)c(-c1c(F)cc(C(=O)O)cc1OC(F)(F)F)cn2C(C1CC1)C1CC1` [P-0230, 4-(1-(dicyclopropylmethyl)-5-(3,5-dimethylisoxazol-4-yl)-1H-pyrrolo[2,3-b]pyridin-3-yl)-3-fluoro-5-(trifluoromethoxy)benzoic acid], 0.1 to 1000 nM; to `Cc1ccccc1-n1cc(-c2ccc(C(=O)O)cc2OC(F)(F)F)c2cc(-c3c(C)noc3C)cnc21` [P-0231, 4-(5-(3,5-dimethylisoxazol-4-yl)-1-(o-tolyl)-1H-pyrrolo[2,3-b]pyridin-3-yl)-3-(trifluoromethoxy)benzoic acid], 0.1 to 1000 nM.
In the case of `Cc1noc(C)c1-c1cnc2c(c1)c(-c1ccc(C(=O)O)cc1OC(F)(F)F)cn2-c1ccc(F)cc1F` [P-0232, 4-(1-(2,4-difluorophenyl)-5-(3,5-dimethylisoxazol-4-yl)-1H-pyrrolo[2,3-b]pyridin-3-yl)-3-(trifluoromethoxy)benzoic acid], the IC50 is 0.1 to 1000 nM.
Regarding `Cc1noc(C)c1-c1cnc2c(c1)c(-c1ccc(C(=O)O)cc1OC(F)(F)F)cn2-c1cc(F)ccc1F` [P-0233, 4-(1-(2,5-difluorophenyl)-5-(3,5-dimethylisoxazol-4-yl)-1H-pyrrolo[2,3-b]pyridin-3-yl)-3-(trifluoromethoxy)benzoic acid], the half-maximal inhibitory concentration (IC50) fell in the range of 0.1 to 1000 nM.
To `Cc1noc(C)c1-c1cnc2c(-c3ccc(C(=O)O)cc3F)c(C(F)(F)F)n([C@@H](C)c3ccccn3)c2c1` [P-0234, (S)-4-(6-(3,5-dimethylisoxazol-4-yl)-1-(1-(pyridin-2-yl)ethyl)-2-(trifluoromethyl)-1H-pyrrolo[3,2-b]pyridin-3-yl)-3-fluorobenzoic acid] belongs 0.1 to 1000 nM; to `Cc1cc(C(=O)O)ccc1-c1c(C(F)(F)F)n([C@@H](C)c2ccccn2)c2cc(-c3c(C)noc3C)cnc12` [P-0235, (S)-4-(6-(3,5-dimethylisoxazol-4-yl)-1-(1-(pyridin-2-yl)ethyl)-2-(trifluoromethyl)-1H-pyrrolo[3,2-b]pyridin-3-yl)-3-methylbenzoic acid], 0.1 to 1000 nM.
